Results reported in article PMC10662156 (Scientific Reports, 2023).

Key:
ALDH2 [1] = biological target: T1, ALDH2 (Homo sapiens, UniProt P05091); assay: QuantiChrom ALDH inhibitor screening kit, diaphorase/MTT-coupled colorimetric assay ([…] nm), recombinant enzyme; type: biochemical
T1 sequence (P05091 18-517): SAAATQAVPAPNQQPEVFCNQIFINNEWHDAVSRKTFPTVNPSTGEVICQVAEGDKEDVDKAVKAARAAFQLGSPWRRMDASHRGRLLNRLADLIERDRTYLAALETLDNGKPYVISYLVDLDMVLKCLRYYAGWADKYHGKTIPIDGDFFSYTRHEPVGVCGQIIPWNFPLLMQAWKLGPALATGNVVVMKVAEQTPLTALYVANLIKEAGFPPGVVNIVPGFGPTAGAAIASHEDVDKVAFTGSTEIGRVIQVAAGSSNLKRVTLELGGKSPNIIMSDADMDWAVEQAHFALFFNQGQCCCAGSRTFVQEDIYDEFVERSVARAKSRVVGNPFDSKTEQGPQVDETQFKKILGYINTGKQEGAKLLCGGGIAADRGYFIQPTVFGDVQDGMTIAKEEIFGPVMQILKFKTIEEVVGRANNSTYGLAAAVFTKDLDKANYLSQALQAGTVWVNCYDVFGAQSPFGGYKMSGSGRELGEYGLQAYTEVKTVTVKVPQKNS

ALDH2 [2] = biological target: T1, ALDH2; assay: QuantiChrom ALDH inhibitor screening kit, % inhibition at […], recombinant enzyme; type: biochemical

Row | Structure (SMILES) | IC50 (ALDH2 [1]) [µM] | inhibition at 20 µM (ALDH2 [2]) [%]
1 | O=c1c(O)c(-c2ccc(O)c(O)c2)oc2cc(O)cc(O)c12 [compound 2, quercetin] | 26.5 | 
2 | COc1ccc(-c2oc3cc(O)cc(O)c3c(=O)c2O)cc1O [compound 8, tamarixetin] |  | 25.8 ± 1.31
3 | O=C(O)[C@H]1O[C@@H](Oc2c(-c3ccc(O)c(O)c3)oc3cc(O)cc(O)c3c2=O)[C@H](O)[C@@H](O)[C@@H]1O [compound 9, quercetin-3-glucuronide] | 9.62 | 
